Experimental data reported in ChEMBL document CHEMBL5042535, “Structure-Based Design and Synthesis of N-Substituted 3-Amino-β-Carboline Derivatives as Potent αβ-Tubulin Degradation Agents” (J Med Chem, 2022).
Activity calls are given as the source filed them. The rule behind the calls is not given here.

Key:
A2780S [1] = assay: Antitumor activity against human A2780S cells xenografted in mouse assessed as tumor growth inhibition at 20 mg/kg, ip; type: functional; conditions: read-out: TGI
A2780/Taxol [2] = assay: Antitumor activity against mouse xenografted with human A2780T cell assessed as tumor growth inhibition at 20 mg/kg, ip; type: functional; conditions: read-out: TGI
A2780/Taxol [3] = assay: Antitumor activity against human A2780T cells xenografted in mouse assessed as tumor growth inhibition at 10 mg/kg, iv treated 3 times a week; type: functional; conditions: read-out: TGI
A2780/Taxol [4] = assay: Cytotoxicity in human A2780T assessed as inhibition in cell growth measured after 24 hrs by MTT assay; type: functional, cell-based
A2780/Taxol [5] = assay: Antitumor activity against human A2780T cells xenografted in mouse assessed as tumor growth inhibition at 20 mg/kg, iv treated 3 times a week; type: functional; conditions: read-out: TGI
A549/TR = assay: Cytotoxicity in human A549T assessed as inhibition in cell growth measured after 24 hrs by MTT assay; type: functional, cell-based
[6] = Drug resistance index, ratio of IC50 for human MCF7 cancer cell to ratio of IC50 for human NCI-ADR-RES cancer cell; type: functional
A2780S [7] = assay: Effect on microtubule network in human A2780S cells assessed as bundling of microtubule fibers near nucleus at 100 nM for 24 hrs; type: functional, cell-based
[8] = Drug resistance index, ratio of IC50 for human A2780S cancer cell to ratio of IC50 for human A2780T cancer cell; type: functional
A2780/Taxol [9] = assay: Antitumor activity against human A2780T cells xenografted in mouse assessed as tumor growth inhibition at 40 mg/kg, iv treated 3 times a week; type: functional; conditions: read-out: TGI
[10] = Drug resistance index, ratio of IC50 for human A549 cancer cell to ratio of IC50 for human A549T cancer cell; type: functional
A2780S [11] = assay: Cytotoxicity in human A2780S assessed as inhibition in cell growth measured after 24 hrs by MTT assay; type: functional, cell-based
NCI/ADR-RES = assay: Cytotoxicity in human NCI-ADR-RES assessed as inhibition in cell growth measured after 24 hrs by MTT assay; type: functional, cell-based
HeLa = assay: Antiproliferative activity against human HeLa cells assessed as reduction in cell viability measured after 24 hrs by MTT assay; type: functional, cell-based
A2780S [12] = assay: Antiproliferative activity against human A2780S cells assessed as reduction in cell viability measured after 24 hrs by MTT assay; type: functional, cell-based
Raji = assay: Antiproliferative activity against human Raji cells assessed as reduction in cell viability measured after 24 hrs by MTT assay; type: functional, cell-based
NCI-H460 = assay: Antiproliferative activity against human NCI-H460 cells assessed as reduction in cell viability measured after 24 hrs by MTT assay; type: functional, cell-based; conditions: NCI-H460, 24 h
MCF7 = assay: Antiproliferative activity against human MCF7 cells assessed as reduction in cell viability measured after 24 hrs by MTT assay; type: functional, cell-based; conditions: MCF7, 24 h

| SMILES | IC50 (HeLa) | IC50 (A2780S [12]) | IC50 (Raji) | IC50 (NCI-H460) | IC50 (MCF7) | inhibition in vivo at 20 mg/kg (A2780S [1]) | inhibition in vivo at 20 mg/kg (A2780/Taxol [2]) | inhibition in vivo at 10 mg/kg (A2780/Taxol [3]) | IC50 (A2780/Taxol [4]) | inhibition in vivo at 20 mg/kg (A2780/Taxol [5]) | IC50 (A549/TR) | Ratio IC50 [6] | Activity (A2780S [7]) | Ratio IC50 [8] | inhibition in vivo at 40 mg/kg (A2780/Taxol [9]) | Ratio IC50 [10] | IC50 (A2780S [11]) | IC50 (NCI/ADR-RES) |
| --- | --- | --- | --- | --- | --- | --- | --- | --- | --- | --- | --- | --- | --- | --- | --- | --- | --- | --- |
| CC(=O)O[C@H]1C(=O)[C@@]2(C)[C@H]([C@H](OC(=O)c3ccccc3)[C@]3(O)C[C@H](OC(=O)[C@H](O)[C@@H](NC(=O)c4ccccc4)c4ccccc4)C(C)=C1C3(C)C)[C@]1(OC(C)=O)CO[C@@H]1C[C@@H]2O [PACLITAXEL] | – | – | – | – | – | 66.1% | 21.7% | 26.9% | 58900 nM | 37.2% | 802 nM | 289 | Active | 974.4 | 75.7% | 33.1 | 60.4 nM | 9340 nM |
| c1cc(CNc2cc3c(cn2)[nH]c2ccccc23)cc(OC2CCCC2)c1 | > 500 nM | > 500 nM | > 500 nM | > 500 nM | > 500 nM | – | – | – | – | – | – | – | – | – | – | – | – | – |
| CCCCOc1cccc(CNc2cc3c(cn2)[nH]c2ccccc23)c1 | > 500 nM | > 500 nM | > 500 nM | > 500 nM | > 500 nM | – | – | – | – | – | – | – | – | – | – | – | – | – |

More lines, main results first:

| IC50 (HeLa) | IC50 (A2780S [12]) | IC50 (Raji) | IC50 (NCI-H460) | IC50 (MCF7) | SMILES | inhibition in vivo at 20 mg/kg (A2780S [1]) | inhibition in vivo at 20 mg/kg (A2780/Taxol [2]) | inhibition in vivo at 10 mg/kg (A2780/Taxol [3]) | IC50 (A2780/Taxol [4]) | inhibition in vivo at 20 mg/kg (A2780/Taxol [5]) | IC50 (A549/TR) | Ratio IC50 [6] | Activity (A2780S [7]) | Ratio IC50 [8] | inhibition in vivo at 40 mg/kg (A2780/Taxol [9]) | Ratio IC50 [10] | IC50 (A2780S [11]) | IC50 (NCI/ADR-RES) |
| --- | --- | --- | --- | --- | --- | --- | --- | --- | --- | --- | --- | --- | --- | --- | --- | --- | --- | --- |
| 46 nM | 60 nM | 37 nM | 48 nM | 47 nM | N#Cc1ccc(Oc2cccc(CNc3cc4c(cn3)[nH]c3ccccc34)c2)cc1 | – | – | – | – | – | – | – | – | – | – | – | – | – |
| 41 nM | 44 nM | 29 nM | 44 nM | 47 nM | Cc1cccc(Oc2cccc(CNc3cc4c(cn3)[nH]c3ccccc34)c2)c1 | – | – | – | – | – | – | – | – | – | – | – | – | – |
| 83 nM | 58 nM | 45 nM | 74 nM | 76 nM | CC(=O)Nc1cccc(Oc2cccc(CNc3cc4c(cn3)[nH]c3ccccc34)c2)c1 | – | – | – | – | – | – | – | – | – | – | – | – | – |
